# Laboratory results as given in US5530126A, “Process for the preparation of substituted 6-(pyrazol-3yl)-1,4-benzoxazin-3-ones” (Monsanto Company, priority 1994, dated 1996).
# Assays:
# Assay type in all cases: in vivo
# [1] = system: Yellow nutsedge; assay: Post-emergence herbicide test; details: Cyperus, 1.12 kg/ha, read-out: % plant inhibition (Yens)
# Outline: (§1)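 Rating of injury as % inhibition against control took place at ~11 days (10–14), and sometimes at ~25 days (24–28), following atomizer application (170.3 kPa, 1870 L/Ha, ~0.4% v/v emulsifier) to greenhouse plants aged 2–3 weeks.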
# [2] = system: Seedling johnsongrass; assay: Post-emergence herbicide test; details: Sorghum halepense, 1.12 kg/ha, read-out: % plant inhibition (Sejg)
# Outline: as §1
# [3] = system: Velvetleaf; assay: Post-emergence herbicide test; details: Abutilon theophrasti, 1.12 kg/ha, read-out: % plant inhibition (Vele)
# Outline: as §1
# [4] = system: Cocklebur; assay: Post-emergence herbicide test; details: Xanthium strumarium, 1.12 kg/ha, read-out: % plant inhibition (Cobu)
# Outline: as §1
# [5] = system: Downy Brome; assay: Post-emergence herbicide test; details: Bromus tectorum, 1.12 kg/ha, read-out: % plant inhibition (Dobr)
# Outline: as §1
# [6] = system: Annual bluegrass; assay: Post-emergence herbicide test; details: 1.12 kg/ha, read-out: % plant inhibition (Anbg)
# Outline: as §1
# [7] = system: Indian Mustard; assay: Post-emergence herbicide test; details: Brassica juncea, 1.12 kg/ha, read-out: % plant inhibition (Inmu)
# Outline: as §1
# [8] = system: Morningglory; assay: Post-emergence herbicide test; details: Ipomoea, 1.12 kg/ha, read-out: % plant inhibition (Mogl)
# Outline: as §1
# [9] = system: Barnyardgrass; assay: Post-emergence herbicide test; details: Echinochloa crus-galli, 1.12 kg/ha, read-out: % plant inhibition (Bygr)
# Outline: as §1
# [10] = system: Wild buckwheat; assay: Post-emergence herbicide test; details: Fallopia convolvulus, 1.12 kg/ha, read-out: % plant inhibition (Wibw)
# Outline: as §1
# [11] = system: Yellow nutsedge; assay: Pre-emergence herbicide test; details: Cyperus, 1.12 kg/ha, read-out: % plant inhibition (Yens)
# Outline: (§2)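 Percent growth inhibition rated roughly 11 days (range 10–14) after treatment, with pans held on a greenhouse bench and watered from below. Compound in acetone or water was sprayed onto the seed bed before covering with a layer of untreated topsoil.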
# [12] = system: Seedling johnsongrass; assay: Pre-emergence herbicide test; details: Sorghum halepense, 1.12 kg/ha, read-out: % plant inhibition (Sejg)
# Outline: as §2
# [13] = system: Velvetleaf; assay: Pre-emergence herbicide test; details: Abutilon theophrasti, 1.12 kg/ha, read-out: % plant inhibition (Vele)
# Outline: as §2
# [14] = system: Cocklebur; assay: Pre-emergence herbicide test; details: Xanthium strumarium, 1.12 kg/ha, read-out: % plant inhibition (Cobu)
# Outline: as §2
# [15] = system: Downy Brome; assay: Pre-emergence herbicide test; details: Bromus tectorum, 1.12 kg/ha, read-out: % plant inhibition (Dobr)
# Outline: as §2
# [16] = system: Annual bluegrass; assay: Pre-emergence herbicide test; details: 1.12 kg/ha, read-out: % plant inhibition (Anbg)
# Outline: as §2
# [17] = system: Indian Mustard; assay: Pre-emergence herbicide test; details: Brassica juncea, 1.12 kg/ha, read-out: % plant inhibition (Inmu)
# Outline: as §2
# [18] = system: Morningglory; assay: Pre-emergence herbicide test; details: Ipomoea, 1.12 kg/ha, read-out: % plant inhibition (Mogl)
# Outline: as §2
# [19] = system: Barnyardgrass; assay: Pre-emergence herbicide test; details: Echinochloa crus-galli, 1.12 kg/ha, read-out: % plant inhibition (Bygr)
# Outline: as §2
# [20] = system: Wild buckwheat; assay: Pre-emergence herbicide test; details: Fallopia convolvulus, 1.12 kg/ha, read-out: % plant inhibition (Wibw)
# Outline: as §2
Structure (SMILES),inhibition at 1120 g/ha [1] [%],inhibition at 1120 g/ha [2] [%],inhibition at 1120 g/ha [3] [%],inhibition at 1120 g/ha [4] [%],inhibition at 1120 g/ha [5] [%],inhibition at 1120 g/ha [6] [%],inhibition at 1120 g/ha [7] [%],inhibition at 1120 g/ha [8] [%],inhibition at 1120 g/ha [9] [%],inhibition at 1120 g/ha [10] [%],inhibition at 1120 g/ha [11] [%],inhibition at 1120 g/ha [12] [%],inhibition at 1120 g/ha [13] [%],inhibition at 1120 g/ha [14] [%],inhibition at 1120 g/ha [15] [%],inhibition at 1120 g/ha [16] [%],inhibition at 1120 g/ha [17] [%],inhibition at 1120 g/ha [18] [%],inhibition at 1120 g/ha [19] [%],inhibition at 1120 g/ha [20] [%]
Cn1nc(-c2cc(C3=NCCO3)c(Cl)cc2F)c(Cl)c1C(F)(F)F [Compound 98],0,90,100,100,90,70,80,100,80,50,0,70,90,20,60,0,70,80,30,60
CC(C)CCOC(=O)c1cc(-c2nn(C)c(C(F)(F)F)c2Cl)c(F)cc1Cl [Compound 141],0,90,100,90,100,90,80,100,70,100,0,50,70,70,70,20,80,80,20,90
Cn1nc(-c2cc(C=NOCC(N)=O)c(Cl)cc2F)c(Cl)c1C(F)(F)F [Compound 131],30,50,100,100,20,20,40,100,0,100,20,70,100,80,30,0,90,100,40,100
"COCCOc1cc(-c2nn(C)c(C(F)(F)F)c2Cl)c(F)cc1Cl [Compound 270, 4-Chloro-3-(4-chloro-2-fluoro-5-(methoxyethoxy)phenyl)-1-methyl-5-(trifluoromethyl)-1H-pyrazole]",60,90,100,90,100,90,90,100,100,100,30,70,100,60,100,70,100,100,90,100
